Test results from PMC11967820, “Deep Learning Combined with Quantitative Structure‒Activity Relationship Accelerates De Novo Design of Antifungal Peptides” (Advanced Science, 2025).
Like-named read-outs stand apart in the source and are kept apart here. No end group written: not given here.

What was measured:
[1] = system: fluconazole‐resistant C. albicans; details: 1 × 10^6 CFU mL^−1, 28 °C, 12 h, then plated on SD agar 37 °C, 16 h
Procedure: Fluconazole‐resistant C. albicans was prepared following the established methods.^[ [23], [51], [52] ^]

[2] = system: C. albicans; details: 0.12 mg kg^−1 intraperitoneally
Procedure: The systemic C. albicans infection mouse model was established following the reported reference.^[ [22] ^] Cyclophosphamide (150 mg kg^−1 d^−1) was first injected intraperitoneally for 3 days to disrupt the immunity of female Kunming mice (Experimental Animal Center of Zhengzhou University, SCXK Yu 2021–0009). […] The injections were given once every 24 h during the first week and once every 48 h during the second week. Survival rates and body weights of the mice in each group were recorded during treatment. At 0, 7, and 14 d of treatment, duplicate samples (n = 3) of the spleen and thymus were collected from each group to determine the immune organ index.^[ [54] ^] The ratio of organ weight to body weight was adopted to describe the immune organ index. At 14 d of treatment, liver, lung, kidney, and spleen tissues were collected from each group of mice and immersed in 4% paraformaldehyde fixative. Subsequently, the tissue samples were embedded in paraffin, followed by sectioned and stained with hematoxylin‐eosin (H&E). Finally, optical microscopy was used to observe the pathological changes in the organ tissues of the mice.

[3] = system: C. albicans; test: Resistance induction by continuous passaging culture; format: cell-based, Candida albicans; details: for change of MIC on continuous passaging: SD broth, 24 h per generation, 28 °C
Procedure: The resistance tendency of c_AFPs developed in C. albicans was assessed utilizing a continuous passaging culture.^[ [23], [51] ^] […] Subsequently, 20 µL of culture was transferred to a fresh SD broth with the same concentration of c_AFPs/antibiotic. The concentrations of c_AFPs/antibiotic in the SD broth were doubled every 10 generations, and the MICs of the c_AFPs/antibiotic were detected every 5 generations. Each 24‐hour incubation was considered one generation. PBS (pH 6.0) was used as a blank control, and fluconazole was used as an antibiotic control. Each experiment was performed three times.

[4] = system: human red blood cells (HRBCs); details: for MHC5, minimal hemolytic concentration that results in 5% human erythrocyte hemolysis: 2% fresh human red blood cells in saline, 37 °C, 30 min, absorbance 540 nm, mean ± SD, n = 3; for TI, therapeutic index against C. albicans: TI = MHC5/MIC100 (C. albicans)
Procedure: A 2% fresh human red blood cells (HRBCs) suspension was used in the hemolysis assay of c_AFPs.^[ [48], [50] ^] The c_AFPs solution was prepared in saline with a concentration range of 0–0.5 mg mL^−1. Then, 2% HRBCs suspension was incubated with different concentrations of c_AFPs in a 96‐well plate (37 °C, 30 min). […] Saline was used as a negative control, and Triton X‐100 (1%) was used as a positive control. Each experiment was replicated three times.

[5] = Day 7, fluconazole group, n = 3

Compound	minimum fungicidal concentration (MFC) against fluconazole‐resistant C. albicans [1]	splenic index [2, 5]	thymic index [2, 5]	thymic index ([2]; Day 14, fluconazole group, n = 3)	average increased weight after 14 days of treatment ([2]; fluconazole group, n = 10)	change of MIC on continuous passaging ([3]; 25th generation)	change of MIC on continuous passaging ([3]; 40th generation)	MIC ([3]; Candida albicans, read-out: MIC of fluconazole against C. albicans)	change of MIC on continuous passaging ([3]; first 20 generations, 0.5 × MIC doubled every 10 generations)	MHC5, minimal hemolytic concentration that results in 5% human erythrocyte hemolysis [4]	TI, therapeutic index against C. albicans [4]
OC(Cn1cncn1)(Cn1cncn1)c1ccc(F)cc1F [fluconazole]	> 50 × MIC	9.89 mg/g	2.45 mg/g	5.16 mg/g	8.16 g	increased twofold	eightfold	1.9 µg/mL	remained unchanged	–	–
RLWRIVLIRKAR-NH2 [AFP‐11]	8 × MIC	–	–	–	–	–	–	–	–	46.51 ± 2.24 µg/mL	6.22
RLWRIVLIRRAK-NH2 [AFP‐10]	2 × MIC	–	–	–	–	–	–	–	–	48.11 ± 1.54 µg/mL	13.71
RLWRIVVIRRAR-NH2 [AFP‐8]	4 × MIC	–	–	–	–	–	–	–	–	41.81 ± 1.88 µg/mL	5.45
VRWRIRLIRKLA-NH2 [AFP‐13]	2 × MIC	–	–	–	–	–	–	–	–	99.50 ± 3.28 µg/mL	15.89
